IC50 data for 27 compounds are collected here from patent publication US9708316B2 (BRISTOL-MYERS SQUIBB COMPANY, priority 2014, dated 2017).

The target in one assay is HIS-TGFβR2 WT (Homo sapiens, UniProt P37173). Description: HTRF probe-displacement assay, HIS-TGFβR2 WT. It counts as binding.
A further assay addresses T1, HIS-TGFβR1 T204D (Homo sapiens, UniProt P36897, T204D).
T1 sequence (P36897 34-503 T204D): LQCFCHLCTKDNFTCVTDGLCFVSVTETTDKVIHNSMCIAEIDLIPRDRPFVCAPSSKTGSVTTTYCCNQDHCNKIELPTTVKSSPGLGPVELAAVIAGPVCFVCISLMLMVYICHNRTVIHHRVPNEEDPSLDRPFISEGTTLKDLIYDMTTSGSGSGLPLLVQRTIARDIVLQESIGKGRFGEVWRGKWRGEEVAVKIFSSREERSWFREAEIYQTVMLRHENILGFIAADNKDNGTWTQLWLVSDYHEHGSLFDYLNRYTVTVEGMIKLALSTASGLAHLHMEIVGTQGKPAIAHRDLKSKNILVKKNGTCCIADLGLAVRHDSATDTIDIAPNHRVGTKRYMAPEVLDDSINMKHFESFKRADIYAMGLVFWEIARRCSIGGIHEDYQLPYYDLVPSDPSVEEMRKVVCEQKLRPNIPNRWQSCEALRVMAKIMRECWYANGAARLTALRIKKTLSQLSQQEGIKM
In words: HTRF probe-displacement assay, HIS-TGFβR1 T204D. It counts as binding. The note with it: read-out: TGFβR1 (μM) IC50.

Sequence of HIS-TGFβR2 WT (P37173 23-567): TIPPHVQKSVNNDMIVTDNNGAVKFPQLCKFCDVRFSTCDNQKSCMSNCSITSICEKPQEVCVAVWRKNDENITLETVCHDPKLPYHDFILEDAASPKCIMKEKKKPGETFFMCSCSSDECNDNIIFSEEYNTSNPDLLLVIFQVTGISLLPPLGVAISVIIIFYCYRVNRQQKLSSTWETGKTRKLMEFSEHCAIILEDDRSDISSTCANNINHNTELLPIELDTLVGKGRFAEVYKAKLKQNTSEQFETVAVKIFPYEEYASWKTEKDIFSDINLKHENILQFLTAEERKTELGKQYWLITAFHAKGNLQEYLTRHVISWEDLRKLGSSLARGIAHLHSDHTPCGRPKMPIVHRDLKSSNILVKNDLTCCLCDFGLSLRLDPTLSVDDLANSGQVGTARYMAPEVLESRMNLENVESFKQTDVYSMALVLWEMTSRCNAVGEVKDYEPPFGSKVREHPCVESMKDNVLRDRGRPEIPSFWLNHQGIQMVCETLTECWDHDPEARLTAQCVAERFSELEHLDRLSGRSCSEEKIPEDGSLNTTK

For `COc1ccc(-c2c(-c3ccnc(NC(C)=O)c3)[nH]c3c(Cl)ccnc23)cn1` [Example 271, N-(4-(7-Chloro-3-(6-methoxypyridin-3-yl)-1H-pyrrolo[3,2-b]pyridin-2-yl)pyridin-2-yl)acetamide], the IC50 on HIS-TGFβR2 WT was 0.352 µM; on HIS-TGFβR1 T204D it was 0.002 µM.

`CC(=O)Nc1cc(-c2[nH]c3cc(Br)cnc3c2-c2cccc(C(F)F)n2)ccn1` [Example 272, N-(4-(6-Bromo-3-(6-(difluoromethyl)pyridin-2-yl)-1H-pyrrolo[3,2-b]pyridin-2-yl)pyridin-2-yl)acetamide]: the values for the concentration for half-maximal inhibition (IC50) on HIS-TGFβR2 WT and on HIS-TGFβR1 T204D were 1.85 µM and 0.001 µM, respectively.

Turning to `COc1ccc(-c2c(-c3ccnc(NC(C)=O)c3)[nH]c3c(CO)ccnc23)cn1` [Example 274, N-(4-(7-(Hydroxymethyl)-3-(6-methoxypyridin-3-yl)-1H-pyrrolo[3,2-b]pyridin-2-yl)pyridin-2-yl)acetamide], the IC50 at HIS-TGFβR2 WT was found to be 0.114 µM; at HIS-TGFβR1 T204D it was 0.001 µM.

Turning to `CC(=O)Nc1cc(-c2[nH]c3c(CO)ccnc3c2-c2cccc(F)n2)ccn1` [Example 275, N-(4-(3-(6-Fluoropyridin-2-yl)-7-(hydroxymethyl)-1H-pyrrolo[3,2-b]pyridin-2-yl)pyridin-2-yl)acetamide], the concentration for half-maximal inhibition (IC50) on HIS-TGFβR2 WT came to 0.637 µM; at HIS-TGFβR1 T204D it was 0.003 µM.

As to `CC(=O)Nc1cc(-c2[nH]c3c(CO)ccnc3c2-c2cccc(Cl)n2)ccn1` [Example 276, N-(4-(3-(6-Chloropyridin-2-yl)-7-(hydroxymethyl)-1H-pyrrolo[3,2-b]pyridin-2-yl)pyridin-2-yl)acetamide], the IC50 on HIS-TGFβR2 WT was 0.503 µM; on HIS-TGFβR1 T204D, 0.001 µM.

Turning to `CC(=O)Nc1cc(-c2[nH]c3c(CO)ccnc3c2-c2ccc(F)nc2)ccn1` [Example 277, N-(4-(3-(6-Fluoropyridin-3-yl)-7-(hydroxymethyl)-1H-pyrrolo[3,2-b]pyridin-2-yl)pyridin-2-yl)acetamide], the IC50 at HIS-TGFβR2 WT came to 0.01 µM; at HIS-TGFβR1 T204D, 0.006 µM.

Consider `CC(=O)Nc1cc(-c2[nH]c3c(CO)ccnc3c2-c2ccc(Cl)nc2)ccn1` [Example 278, N-(4-(3-(6-Chloropyridin-3-yl)-7-(hydroxymethyl)-1H-pyrrolo[3,2-b]pyridin-2-yl)pyridin-2-yl)acetamide], for which the figures for the half-inhibitory concentration (IC50) at HIS-TGFβR2 WT and on HIS-TGFβR1 T204D were 0.709 µM and 0.011 µM, respectively.

For `CC(=O)Nc1cc(-c2[nH]c3c(CO)ccnc3c2-c2cccc(C)n2)ccn1` [Example 279, N-(4-(7-(Hydroxymethyl)-3-(6-methylpyridin-2-yl)-1H-pyrrolo[3,2-b]pyridin-2-yl)pyridin-2-yl)acetamide], the IC50 on HIS-TGFβR2 WT is 9.9 µM; on HIS-TGFβR1 T204D, 0.006 µM.

Consider `CC(=O)Nc1cc(-c2[nH]c3c(CO)ccnc3c2-c2ccc(C)nc2)ccn1` [Example 280, N-(4-(7-(Hydroxymethyl)-3-(6-methylpyridin-3-yl)-1H-pyrrolo[3,2-b]pyridin-2-yl)pyridin-2-yl)acetamide], for which the values for the half-maximal inhibitory concentration (IC50) on HIS-TGFβR2 WT and at HIS-TGFβR1 T204D were 4.12 µM and 0.023 µM, respectively.

As to `COc1cnc2c(-c3cccc(C(F)F)n3)c(-c3ccnc(NC(C)=O)c3)[nH]c2c1` [Example 282, N-(4-(3-(6-(Difluoromethyl)pyridin-2-yl)-6-methoxy-1H-pyrrolo[3,2-b]pyridin-2-yl)pyridin-2-yl)acetamide], the IC50 turned out to be 1.85 µM on HIS-TGFβR2 WT and 0.001 µM on HIS-TGFβR1 T204D.

`COc1cnc2c(-c3cccc(C)n3)c(-c3ccnc(NC(C)=O)c3)[nH]c2c1` [Example 283, N-(4-(6-Methoxy-3-(6-methylpyridin-2-yl)-1H-pyrrolo[3,2-b]pyridin-2-yl)pyridin-2-yl)acetamide]: the figures for the IC50 at HIS-TGFβR2 WT and at HIS-TGFβR1 T204D were 1.12 µM and 0.001 µM, respectively.

As to `COc1ccc(-c2c(-c3ccnc(NC(C)=O)c3)[nH]c3cc(OC)cnc23)nc1` [Example 284, N-(4-(6-Methoxy-3-(5-methoxypyridin-2-yl)-1H-pyrrolo[3,2-b]pyridin-2-yl)pyridin-2-yl)acetamide], the IC50 on HIS-TGFβR2 WT is 5.22 µM; at HIS-TGFβR1 T204D, 0.003 µM.

Consider `COc1cnc2c(-c3ccc(OC)nc3)c(-c3ccnc(NC(C)=O)c3)[nH]c2c1` [Example 285, N-(4-(6-Methoxy-3-(6-methoxypyridin-3-yl)-1H-pyrrolo[3,2-b]pyridin-2-yl)pyridin-2-yl)acetamide], for which the IC50 on HIS-TGFβR2 WT is 0.016 µM; on HIS-TGFβR1 T204D, 0.002 µM.

Take `COc1ccc(-c2c(-c3ccnc(NC(=O)CN4CCOCC4)c3)[nH]c3cccnc23)cn1` [Example 286, N-(4-(3-(6-Methoxypyridin-3-yl)-1H-pyrrolo[3,2-b]pyridin-2-yl)pyridin-2-yl)-2-morpholinoacetamide]: the figures for the concentration for half-maximal inhibition (IC50) at HIS-TGFβR2 WT and on HIS-TGFβR1 T204D were 0.253 µM and 0.001 µM, respectively.

For the compound `COc1ccc(-c2c(-c3ccnc(NC(=O)CN4CCN(C)CC4)c3)[nH]c3cccnc23)cn1` [Example 287, N-(4-(3-(6-Methoxypyridin-3-yl)-1H-pyrrolo[3,2-b]pyridin-2-yl)pyridin-2-yl)-2-(4-methylpiperazin-1-yl)acetamide], the IC50 at HIS-TGFβR2 WT was found to be 0.668 µM; at HIS-TGFβR1 T204D, 0.001 µM.

As to `COc1ccc(-c2c(-c3ccnc(NC(=O)CN4CCN(CCO)CC4)c3)[nH]c3cccnc23)cn1` [Example 288, 2-(4-(2-Hydroxyethyl)piperazin-1-yl)-N-(4-(3-(6-methoxypyridin-3-yl)-1H-pyrrolo[3,2-b]pyridin-2-yl)pyridin-2-yl)acetamide], the half-maximal inhibitory concentration (IC50) at HIS-TGFβR2 WT turned out to be 0.487 µM; at HIS-TGFβR1 T204D, 0.002 µM.

On to `COc1ccc(-c2c(-c3ccnc(N)c3)[nH]c3cc(Cl)cnc23)cn1` [Example 289, 4-(6-Chloro-3-(6-methoxypyridin-3-yl)-1H-pyrrolo[3,2-b]pyridin-2-yl)pyridin-2-amine], for which the half-maximal inhibitory concentration (IC50) came to 0.794 µM on HIS-TGFβR2 WT and 0.002 µM at HIS-TGFβR1 T204D.

On to `COc1ccc(-c2c(-c3ccnc(NC(=O)CN4CCOCC4)c3)[nH]c3cc(Cl)cnc23)cn1` [Example 290, N-(4-(6-Chloro-3-(6-methoxypyridin-3-yl)-1H-pyrrolo[3,2-b]pyridin-2-yl)pyridin-2-yl)-2-morpholinoacetamide], for which the IC50 at HIS-TGFβR2 WT amounted to 1.12 µM; at HIS-TGFβR1 T204D it was 0.002 µM.

Take `CCN1CCN(CC(=O)Nc2cc(-c3[nH]c4cc(Cl)cnc4c3-c3ccc(OC)nc3)ccn2)CC1` [Example 291, N-(4-(6-chloro-3-(6-methoxypyridin-3-yl)-1H-pyrrolo[3,2-b]pyridin-2-yl)pyridin-2-yl)-2-(4-ethylpiperazin-1-yl)acetamide]: the figures for the IC50 on HIS-TGFβR2 WT and on HIS-TGFβR1 T204D were 1.66 µM and 0.001 µM, respectively.

Take `COc1ccc(-c2c(-c3ccnc(NC(=O)CN4CCN(C)CC4)c3)[nH]c3cc(Cl)cnc23)cn1` [Example 292, N-(4-(6-chloro-3-(6-methoxypyridin-3-yl)-1H-pyrrolo[3,2-b]pyridin-2-yl)pyridin-2-yl)-2-(4-methylpiperazin-1-yl)acetamide]: the figures for the IC50 at HIS-TGFβR2 WT and at HIS-TGFβR1 T204D were 1.51 µM and 0.001 µM, respectively.

On to `CNCc1cnc2c(-c3ccc(OC)cn3)c(-c3ccnc(NC(C)=O)c3)[nH]c2c1` [Example 293, N-(4-(3-(5-Methoxypyridin-2-yl)-6-((methylamino)methyl)-1H-pyrrolo[3,2-b]pyridin-2-yl)pyridin-2-yl)acetamide], for which the IC50 at HIS-TGFβR2 WT is over 15 µM; at HIS-TGFβR1 T204D, 0.016 µM.

For the compound `CCCNCc1cnc2c(-c3ccc(OC)cn3)c(-c3ccnc(NC(C)=O)c3)[nH]c2c1` [Example 294, N-(4-(3-(5-methoxypyridin-2-yl)-6-((propylamino)methyl)-1H-pyrrolo[3,2-b]pyridin-2-yl)pyridin-2-yl)acetamide], the results for the IC50 at HIS-TGFβR2 WT and on HIS-TGFβR1 T204D were over 15 µM and 0.063 µM, respectively.

`COc1ccc(-c2c(-c3ccnc(NC(C)=O)c3)[nH]c3cc(C(O)C(F)(F)C(N)=O)cnc23)nc1` (stereo not drawn) [Example 295, 3-(2-(2-Acetamidopyridin-4-yl)-3-(5-methoxypyridin-2-yl)-1H-pyrrolo[3,2-b]pyridin-6-yl)-2,2-difluoro-3-hydroxypropanamide]: the IC50 at HIS-TGFβR2 WT is over 15 µM; on HIS-TGFβR1 T204D, 0.001 µM.

As to `COc1ccc(-c2c(-c3ccnc(NC(C)=O)c3)[nH]c3cc(C(=O)C(F)(F)F)cnc23)nc1` [Example 296, N-(4-(3-(5-Methoxypyridin-2-yl)-6-(2,2,2-trifluoroacetyl)-1H-pyrrolo[3,2-b]pyridin-2-yl)pyridin-2-yl)acetamide], the IC50 at HIS-TGFβR2 WT was determined as 7.78 µM; at HIS-TGFβR1 T204D, 0.002 µM.

Consider `COc1ccc(-c2c(-c3ccnc(NC(C)=O)c3)[nH]c3cc(C(O)C(F)(F)F)cnc23)nc1` (stereo not drawn) [Example 297, N-(4-(3-(5-Methoxypyridin-2-yl)-6-(2,2,2-trifluoro-1-hydroxyethyl)-1H-pyrrolo[3,2-b]pyridin-2-yl)pyridin-2-yl)acetamide], for which the IC50 on HIS-TGFβR2 WT is 4.33 µM; at HIS-TGFβR1 T204D, 0.004 µM.

Turning to `COc1ccc(-c2c(-c3ccnc(NC(C)=O)c3)[nH]c3c(C(C)=O)ccnc23)cn1` [Example 298, N-(4-(7-Acetyl-3-(6-methoxypyridin-3-yl)-1H-pyrrolo[3,2-b]pyridin-2-yl)pyridin-2-yl)acetamide], the figures for the 50% inhibitory concentration (IC50) at HIS-TGFβR2 WT and on HIS-TGFβR1 T204D were 0.12 µM and 0.008 µM, respectively.

Consider `COc1ccc(-c2c(-c3ccnc(NC(C)=O)c3)[nH]c3c(C(C)(C)O)ccnc23)cn1` [Example 299, N-(4-(7-(2-Hydroxypropan-2-yl)-3-(6-methoxypyridin-3-yl)-1H-pyrrolo[3,2-b]pyridin-2-yl)pyridin-2-yl)acetamide], for which the values for the IC50 on HIS-TGFβR2 WT and on HIS-TGFβR1 T204D were 0.038 µM and 0.002 µM, respectively.
